Experimental data: US20250172566A1, “SACCHARIDE SENSING SYSTEMS” (CARBOMETRICS LIMITED, priority 2022, published 2025)

What was measured:
[1] = Fluorescence lifetime glucose responsive assay (10 mM PBS, pH 7.4, 298 K); conditions: Ex 450 nm
[2] = Fluorescent solution phase glucose responsive assay (pH 7.4, 298 K)
Description: Fluorescence spectroscopy was performed on either a HORIBA Duetta or BMG Labtech CLARIOstar plus plate reader. Emission spectra were obtained using the appropriate excitation wavelength and at a temperature of either 298 or 310 K and at pH 7.4 unless otherwise stated. Data collection and analysis were performed using EzSpec software by HORIBA or CLARIOstar MARS software by BMG Labtech. Further analysis and processing were performed in Microsoft Excel.
A solution of GBM and FIM at the required concentrations were created in the appropriate media. The emission spectrum of the assay was then acquired by exciting at the designated excitation wavelength to obtain the baseline emission intensity for the assay. Aliquots of 2 M D-glucose (in the same media) were then added to give the required final glucose concentrations (e.g. 15 μL of 2 M D-glucose in 3 mL gives a final D-glucose concentration of 10 mM) and the assay allowed to reach equilibration. The emission spectra were collected after each addition of D-glucose and compared to the original baseline emission, monitoring at the typical emission maximum (Emmax), and the percentage increase or decrease recorded. Emission spectra acquired on either a Horiba Duetta fluorometer or Clariostar plus plate reader.
The glucose responsive fluorescence emission for different combinations of glucose binding molecules (GBM) and fluorescent inhibitor molecules (FIM) at various concentrations and in various media was tested as described above. All results obtained at pH 7.4 and 298 K unless otherwise stated.
All results obtained at pH 7.4 and 298 K unless otherwise stated.
Table 4 provides the composition of the assay media used as the code assigned to each media as used in Tables 1 to 3.

[3] = Fluorescent hydrogel phase glucose responsive assay (10 mM PBS, pH 7.4, 310 K); conditions: 20 mM D-glucose, Ex 480/Emmax 520 nm
[4] = 5 mM glucose, GBM15 20 uM, FIM 5 uM
[5] = 20 mM glucose, GBM15 20 uM, FIM 5 uM
[6] = 40 mM glucose, GBM15 20 uM, FIM 5 uM

CC(C)(C)OC(=O)NC(Cc1cn(CCCCC(C(=O)NCC(COC2OC(CO)C(O)C(O)C2O)c2ccccc2)[N+](C)(C)C)nn1)C(=O)NCCOCCOCCn1cc(-c2ccnc(-c3cc(-c4cn(CCOCCOc5cc(S(=O)(=O)[O-])c6ccc7c(S(=O)(=O)[O-])cc(S(=O)(=O)[O-])c8ccc5c6c87)nn4)ccn3)c2)nn1.[Ru+2].c1ccc(-c2ccccn2)nc1.c1ccc(-c2ccccn2)nc1 (stereo not drawn) [FIM56]
Fluorescence lifetime component τ1 for FIM and GBM at a particular glucose concentration [1, 4]: 695 ns
Fluorescence lifetime component τ2 for FIM and GBM at a particular glucose concentration [1, 4]: 3040 ns
Fluorescence lifetime component τ1 for FIM and GBM at a particular glucose concentration [1, 5]: 660 ns
Fluorescence lifetime component τ2 for FIM and GBM at a particular glucose concentration [1, 5]: 3210 ns
Fluorescence lifetime component τ1 for FIM and GBM at a particular glucose concentration [1, 6]: 625 ns
Fluorescence lifetime component τ2 for FIM and GBM at a particular glucose concentration [1, 6]: 3260 ns
Lifetime component τ1 of FIM only ([1]; FIM 5 uM): 520 ns
Lifetime component τ2 of FIM only ([1]; FIM 5 uM): 3620 ns
Lifetime component τ1 of FIM after GBM addition ([1]; GBM15 20 uM, FIM 5 uM): 650 ns
Lifetime component τ2 of FIM after GBM addition ([1]; GBM15 20 uM, FIM 5 uM): 2500 ns

C[N+](C)(C)[C@@H](CCCCn1cc(C[C@H](NC(=O)OC[C@@H]2[C@@H]3CCC#CCC[C@@H]32)C(=O)NCCOCCOCCn2cc(CNC(=O)c3ccc4c(c3)C(=O)OC43c4ccc(N)c(S(=O)(=O)[O-])c4Oc4c3ccc(N)c4S(=O)(=O)O)nn2)nn1)C(=O)NCC(CO[C@@H]1O[C@H](CO)[C@@H](O)[C@H](O)[C@H]1O)c1ccccc1 (stereo partly drawn) [FIM60]
Change in Emmax for FIM at a particular D-glucose concentration ([2]; 5 mM D-glucose, GBM7 50 uM, FIM 5 uM, Ex 470/Emmax 520 nm, medium B (10 mM PBS)): 220%
Change in Emmax for FIM at a particular D-glucose concentration ([2]; 5 mM D-glucose, GBM15 50 uM, FIM 5 uM, Ex 470/Emmax 520 nm, medium B (10 mM PBS)): 80%
Change in Emmax for FIM at a particular D-glucose concentration ([2]; 5 mM D-glucose, GBM30 50 uM, FIM 1 uM, Ex 470/Emmax 520 nm, medium B (10 mM PBS)): 120%
Change in Emmax for FIM at a particular D-glucose concentration ([2]; 5 mM D-glucose, GBM40 20 uM, FIM 5 uM, Ex 470/Emmax 520 nm, medium B (10 mM PBS)): 250%
Change in Emmax for FIM at a particular D-glucose concentration ([2]; 5 mM D-glucose, GBM40 20 uM, FIM 5 uM, Ex 470/Emmax 520 nm, medium C (human serum)): 250%
Change in Emmax for FIM at a particular D-glucose concentration ([2]; 5 mM D-glucose, GBM43 40 uM, FIM 5 uM, Ex 450/Emmax 520 nm, medium B (10 mM PBS)): 80%
Change in Emmax for FIM at a particular D-glucose concentration ([2]; 10 mM D-glucose, GBM15 50 uM, FIM 5 uM, Ex 470/Emmax 520 nm, medium B (10 mM PBS)): 130%
Change in Emmax for FIM at a particular D-glucose concentration ([2]; 10 mM D-glucose, GBM30 50 uM, FIM 1 uM, Ex 470/Emmax 520 nm, medium B (10 mM PBS)): 170%
Change in Emmax for FIM at a particular D-glucose concentration ([2]; 10 mM D-glucose, GBM43 40 uM, FIM 5 uM, Ex 450/Emmax 520 nm, medium B (10 mM PBS)): 125%
Change in Emmax for FIM at a particular D-glucose concentration ([2]; 20 mM D-glucose, GBM7 50 uM, FIM 5 uM, Ex 470/Emmax 520 nm, medium B (10 mM PBS)): 310%
Change in Emmax for FIM at a particular D-glucose concentration ([2]; 20 mM D-glucose, GBM15 50 uM, FIM 5 uM, Ex 470/Emmax 520 nm, medium B (10 mM PBS)): 200%
Change in Emmax for FIM at a particular D-glucose concentration ([2]; 20 mM D-glucose, GBM30 50 uM, FIM 1 uM, Ex 470/Emmax 520 nm, medium B (10 mM PBS)): 200%
Change in Emmax for FIM at a particular D-glucose concentration ([2]; 20 mM D-glucose, GBM40 20 uM, FIM 5 uM, Ex 470/Emmax 520 nm, medium B (10 mM PBS)): 450%
Change in Emmax for FIM at a particular D-glucose concentration ([2]; 20 mM D-glucose, GBM40 20 uM, FIM 5 uM, Ex 470/Emmax 520 nm, medium C (human serum)): 430%
Change in Emmax for FIM at a particular D-glucose concentration ([2]; 20 mM D-glucose, GBM43 40 uM, FIM 5 uM, Ex 450/Emmax 520 nm, medium B (10 mM PBS)): 165%
Change in Emmax for FIM at a particular D-glucose concentration ([2]; 40 mM D-glucose, GBM7 50 uM, FIM 5 uM, Ex 470/Emmax 520 nm, medium B (10 mM PBS)): 400%
Change in Emmax for FIM at a particular D-glucose concentration ([2]; 40 mM D-glucose, GBM15 50 uM, FIM 5 uM, Ex 470/Emmax 520 nm, medium B (10 mM PBS)): 220%
Change in Emmax for FIM at a particular D-glucose concentration ([2]; 40 mM D-glucose, GBM30 50 uM, FIM 1 uM, Ex 470/Emmax 520 nm, medium B (10 mM PBS)): 220%
Change in Emmax for FIM at a particular D-glucose concentration ([2]; 40 mM D-glucose, GBM43 40 uM, FIM 5 uM, Ex 450/Emmax 520 nm, medium B (10 mM PBS)): 200%
Change in Emmax for FIM at a particular D-glucose concentration ([2]; 80 mM D-glucose, GBM40 20 uM, FIM 5 uM, Ex 470/Emmax 520 nm, medium B (10 mM PBS)): 600%
Change in Emmax for FIM at a particular D-glucose concentration ([2]; 80 mM D-glucose, GBM40 20 uM, FIM 5 uM, Ex 470/Emmax 520 nm, medium C (human serum)): 500%
Change in Emmax for FIM at a particular D-glucose concentration ([2]; 80 mM D-glucose, GBM43 40 uM, FIM 5 uM, Ex 450/Emmax 520 nm, medium B (10 mM PBS)): 230%
Change in Emmax for FIM at a particular D-glucose concentration ([3]; GBM15 50 uM, FIM 50 uM, hydrogel G (amino dextran/PEG/PEG3-azide)): 50%
Change in Emmax for FIM at a particular D-glucose concentration ([3]; GBM30 100 uM, FIM 10 uM, hydrogel H (amino azide dextran/PEG)): 40%

CN1c2cc3c(cc2C(CS(=O)(=O)[O-])=CC1(C)C)C(c1ccc(C(=O)NCc2cn(CCOCCOCCOCCNC(=O)[C@H](Cc4cn(CCOCCOCCOCCOc5ccc(CCO[C@@H]6O[C@H](CO)[C@@H](O)[C@H](O)[C@H]6O)cc5)nn4)NC(=O)OC(C)(C)C)nn2)cc1C(=O)[O-])=c1cc2c(cc1O3)=[N+](C)C(C)(C)C=C2CS(=O)(=O)[O-].[Na+].[Na+] [FIM10]
Fluorescence lifetime component τ1 for FIM and GBM at a particular glucose concentration ([1]; 20 mM glucose, GBM40 5 uM, FIM 10 uM): 580 ns
Lifetime component τ1 of FIM only ([1]; FIM 10 uM): 575 ns
Lifetime component τ1 of FIM after GBM addition ([1]; GBM40 5 uM, FIM 10 uM): 620 ns
Change in Emmax for FIM at a particular D-glucose concentration ([2]; 5 mM D-glucose, GBM42 20 uM, FIM 5 uM, Ex 560/Emmax 610 nm, medium B (10 mM PBS)): 65%
Change in Emmax for FIM at a particular D-glucose concentration ([2]; 10 mM D-glucose, GBM42 20 uM, FIM 5 uM, Ex 560/Emmax 610 nm, medium B (10 mM PBS)): 85%
Change in Emmax for FIM at a particular D-glucose concentration ([2]; 20 mM D-glucose, GBM42 20 uM, FIM 5 uM, Ex 560/Emmax 610 nm, medium B (10 mM PBS)): 105%
Change in Emmax for FIM at a particular D-glucose concentration ([2]; 40 mM D-glucose, GBM40 5 uM, FIM 10 uM, Ex 560/Emmax 610 nm, medium B (10 mM PBS)): −75%
Change in Emmax for FIM at a particular D-glucose concentration ([2]; 40 mM D-glucose, GBM42 20 uM, FIM 5 uM, Ex 560/Emmax 610 nm, medium B (10 mM PBS)): 110%
